The text below walks through data of patent US9969694B2, “N-(arylalkyl)-N′-pyrazolyl-urea, thiourea, guanidine and cyanoguanidine compounds as TrkA kinase inhibitors” (Array BioPharma Inc., priority 2012, dated 2018).

Molecules are shown by their SMILES. Where a name gives a salt, the structure may show the parent alone.

The target in this test is T1, His-tagged recombinant human TrkA (Homo sapiens, UniProt P04629).
T1 construct: 6HIS tagged cytoplasmic domain from Invitrogen, Catalog No. PV3144; purchased Invitrogen PV3144
T1 sequence (P04629 440-796 limits assumed): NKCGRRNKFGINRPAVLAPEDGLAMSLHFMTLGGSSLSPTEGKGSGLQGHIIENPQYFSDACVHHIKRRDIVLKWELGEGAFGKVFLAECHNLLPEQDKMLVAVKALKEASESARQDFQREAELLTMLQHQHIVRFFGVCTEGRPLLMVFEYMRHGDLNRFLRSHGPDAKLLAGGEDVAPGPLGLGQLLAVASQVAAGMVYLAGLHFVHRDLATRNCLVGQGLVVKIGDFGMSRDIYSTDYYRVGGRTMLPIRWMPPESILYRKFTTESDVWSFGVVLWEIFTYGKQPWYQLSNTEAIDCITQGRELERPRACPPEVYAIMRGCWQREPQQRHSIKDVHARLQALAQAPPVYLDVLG
The experiment in a line: TrkA Kinase Binding Assay (LanthaScreen Eu). The note with it: averaged IC50; TR-FRET binding, 60 min, 22° C.; read-out: TrkA Enzyme IC50. In a few lines:
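TR-FRET tracer displacement: 5 nM His-tagged TrkA cytoplasmic domain with 4 nM Tracer 236, biotinylated anti-His and Eu-streptavidin in pH 7.5 MOPS buffer, 2% DMSO, 60 min at 22 °C. 665/615 nm emission ratio gave percent of control; IC50 from four-parameter fit.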
By IC50 is commonly meant the concentration at which inhibition is half-maximal. Regarding `COCc1ccc(OC(F)(F)F)c(CNC(=O)Nc2c(C)c(OC[C@@H]3COCCN3)nn2-c2ccccc2)c1` [Example 103, (S)-1-(5-(methoxymethyl)-2-(trifluoromethoxy)benzyl)-3-(4-methyl-3-(morpholin-3-ylmethoxy)-1-phenyl-1H-pyrazol-5-yl)urea], the half-maximal inhibitory concentration (IC50) is below 100 nM.
The figure for `COCc1ccc(OC(F)(F)F)c(CNC(=O)Nc2c(C)c(O[C@H]3C[C@H](N(C)C)C3)nn2-c2ccccc2)c1` [Example 104, 1-(3-((1r,3r)-3-(dimethylamino)cyclobutoxy)-4-methyl-1-phenyl-1H-pyrazol-5-yl)-3-(5-(methoxymethyl)-2-(trifluoromethoxy)benzyl)urea] is below 100 nM; for `COCc1ccc(OC(F)F)c(CNC(=O)Nc2c(C)c(OCC3CCNCC3)nn2-c2ccccc2)c1` [Example 105, 1-(2-(difluoromethoxy)-5-(methoxymethyl)benzyl)-3-(4-methyl-1-phenyl-3-(piperidin-4-ylmethoxy)-1H-pyrazol-5-yl)urea] it is below 100 nM; for `COCc1ccc(OC(F)(F)F)c(CNC(=O)Nc2c(C)c(OCC3CCN(C)C3)nn2-c2ccccc2)c1` (stereo not drawn) [Example 106, 1-(5-(methoxymethyl)-2-(trifluoromethoxy)benzyl)-3-(4-methyl-3-((1-methylpyrrolidin-3-yl)methoxy)-1-phenyl-1H-pyrazol-5-yl)urea hydrochloride] it is below 100 nM.
To `COCc1ccc(OC(F)F)c(CNC(=O)Nc2c(C)c(OCC3CCN(C)C3)nn2-c2ccccc2)c1` (stereo not drawn) [Example 107, 1-(2-(difluoromethoxy)-5-(methoxymethyl)benzyl)-3-(4-methyl-3-((1-methylpyrrolidin-3-yl)methoxy)-1-phenyl-1H-pyrazol-5-yl)urea] belongs below 100 nM; to `COCc1ccc(OC(F)F)c(CNC(=O)Nc2c(C)c(OC3CC4(C3)CN(C)C4)nn2-c2ccccc2)c1` [Example 108, 1-(2-(difluoromethoxy)-5-(methoxymethyl)benzyl)-3-(4-methyl-3-((2-methyl-2-azaspiro[3.3]heptan-6-yl)oxy)-1-phenyl-1H-pyrazol-5-yl)urea], below 100 nM.
To `COCc1ccc(OC(F)(F)F)c(CNC(=O)Nc2c(C)c(OC[C@H](N)CO)nn2-c2ccccc2)c1` [Example 109, (R)-1-(3-(2-amino-3-hydroxypropoxy)-4-methyl-1-phenyl-1H-pyrazol-5-yl)-3-(5-(methoxymethyl)-2-(trifluoromethoxy)benzyl)urea] belongs below 100 nM; to `COCc1ccc(OC(F)(F)F)c(CNC(=O)Nc2c(C)c(OC[C@@H]3COCCN3C)nn2-c2ccccc2)c1` [Example 110, (S)-1-(5-(methoxymethyl)-2-(trifluoromethoxy)benzyl)-3-(4-methyl-3-((4-methylmorpholin-3-yl)methoxy)-1-phenyl-1H-pyrazol-5-yl)urea], below 100 nM.
Consider `COCc1ccc(OC(F)(F)F)c(CNC(=O)Nc2c(C)c(OCC3CCCN(C)C3)nn2-c2ccccc2)c1` (stereo not drawn) [Example 111, 1-(5-(methoxymethyl)-2-(trifluoromethoxy)benzyl)-3-(4-methyl-3-((1-methylpiperidin-3-yl)methoxy)-1-phenyl-1H-pyrazol-5-yl)urea], for which the IC50 is below 100 nM.
The figure for `COCc1ccc(OC(F)(F)F)c(CNC(=O)Nc2c(C)c(OC[C@@H]3CNCCO3)nn2-c2ccccc2)c1` [Example 112, (S)-1-(5-(methoxymethyl)-2-(trifluoromethoxy)benzyl)-3-(4-methyl-3-(morpholin-2-ylmethoxy)-1-phenyl-1H-pyrazol-5-yl)urea] is below 100 nM; for `COCc1ccc(OC(F)(F)F)c(CNC(=O)Nc2c(C)c(OC[C@H]3COCCN3C)nn2-c2ccccc2)c1` [Example 113] it is below 100 nM; for `COCc1ccc(OC(F)(F)F)c(CNC(=O)Nc2c(C)c(OC[C@@H]3CN(C)CCO3)nn2-c2ccccc2)c1` [Example 114, (S)-1-(5-(methoxymethyl)-2-(trifluoromethoxy)benzyl)-3-(4-methyl-3-((4-methylmorpholin-2-yl)methoxy)-1-phenyl-1H-pyrazol-5-yl)urea] it is below 100 nM.
Take `Cc1c(OCC2CCN(C)CC2)nn(-c2ccccc2)c1NC(=O)NCc1ccccc1OC(F)(F)F` [Example 115, 1-(4-methyl-3-((1-methylpiperidin-4-yl)methoxy)-1-phenyl-1H-pyrazol-5-yl)-3-(2-(trifluoromethoxy)benzyl)urea]: the IC50 was below 100 nM.
The figure for `COCc1ccc(-c2ccccc2)c(CNC(=O)Nc2c(C)c(-c3cnn(C)c3)nn2-c2ccccc2)c1` [Example 116, 1-(1′,4-dimethyl-1-phenyl-1H,1′H-[3,4′-bipyrazol]-5-yl)-3-((4-(methoxymethyl)-[1,1′-biphenyl]-2-yl)methyl)urea] is below 100 nM.
In the case of `COCc1cc(CNC(=O)Nc2c(C)c(-c3cnn(C)c3)nn2-c2ccccc2)c(C2CCC2)cc1F` [Example 117, 1-(2-cyclobutyl-4-fluoro-5-(methoxymethyl)benzyl)-3-(1′,4-dimethyl-1-phenyl-1H,1′H-[3,4′-bipyrazol]-5-yl)urea], the concentration for half-maximal inhibition (IC50) is below 100 nM.
In the case of `COCc1ccc(CN)c(CNC(=O)Nc2c(C)c(-c3cnn(C)c3)nn2-c2ccccc2)c1` [Example 118, 1-(2-(aminomethyl)-5-(methoxymethyl)benzyl)-3-(1′,4-dimethyl-1-phenyl-1H,1′H-[3,4′-bipyrazol]-5-yl)urea], the half-inhibitory concentration (IC50) is 100 to 1000 nM.
To `COCc1ccc(CNCC(F)(F)F)c(CNC(=O)Nc2c(C)c(-c3cnn(C)c3)nn2-c2ccccc2)c1` [Example 119, 1-(1′,4-dimethyl-1-phenyl-1H,1′H-[3,4′-bipyrazol]-5-yl)-3-(5-(methoxymethyl)-2-(((2,2,2-trifluoroethyl)amino)methyl)benzyl)urea] belongs 100 to 1000 nM.
Take `COCc1ccc(C2CCC2)c(CNC(=O)Nc2c3c(nn2-c2ccccc2)CSC3)c1` [Example 120, 1-(2-cyclobutyl-5-(methoxymethyl)benzyl)-3-(2-phenyl-4,6-dihydro-2H-thieno[3,4-c]pyrazol-3-yl)urea]: the IC50 was below 100 nM.
To `COCc1ccc(C2CCC2)c(CNC(=O)Nc2c3c(nn2-c2ccccc2)CS(=O)(=O)C3)c1` [Example 121, 1-(2-cyclobutyl-5-(methoxymethyl)benzyl)-3-(5,5-dioxido-2-phenyl-4,6-dihydro-2H-thieno[3,4-c]pyrazol-3-yl)urea] belongs below 100 nM; to `COCc1ccc(C2CCC2)c(CNC(=O)Nc2c(C)c(=O)[nH]n2-c2ccccc2)c1` [Example 122, 1-(2-cyclobutyl-5-(methoxymethyl)benzyl)-3-(4-methyl-5-oxo-2-phenyl-2,5-dihydro-1H-pyrazol-3-yl)urea], below 100 nM; to `CSCc1ccc(C2CCC2)c(CNC(=O)Nc2c(C)c(-c3cnn(C)c3)nn2-c2ccccc2)c1` [Example 123, 1-(2-cyclobutyl-5-((methylthio)methyl)benzyl)-3-(1′,4-dimethyl-1-phenyl-1H,1′H-[3,4′-bipyrazol]-5-yl)urea], below 100 nM.
To `COCc1ccc(C2CCC2)c(CNC(=O)Nc2c(C)c(OC[C@H]3COC(C)(C)O3)nn2-c2ccccc2)c1` [Example 124, (S)-1-(2-cyclobutyl-5-(methoxymethyl)benzyl)-3-(3-((2,2-dimethyl-1,3-dioxolan-4-yl)methoxy)-4-methyl-1-phenyl-1H-pyrazol-5-yl)urea] belongs below 100 nM; to `COCc1ccc(C2CCC2)c(CNC(=O)Nc2c(C)c(OC[C@H](O)CO)nn2-c2ccccc2)c1` [Example 125, (R)-1-(2-cyclobutyl-5-(methoxymethyl)benzyl)-3-(3-(2,3-dihydroxypropoxy)-4-methyl-1-phenyl-1H-pyrazol-5-yl)urea], below 100 nM.
The figure for `COCc1ccc(C2CCC2)c(CNC(=O)Nc2c(C)c(OCc3nnc(C)o3)nn2-c2ccccc2)c1` [Example 126, 1-(2-cyclobutyl-5-(methoxymethyl)benzyl)-3-(4-methyl-3-((5-methyl-1,3,4-oxadiazol-2-yl)methoxy)-1-phenyl-1H-pyrazol-5-yl)urea] is below 100 nM.
On to `CSc1ccc(C2CCC2)c(CNC(=O)Nc2c(C)c(-c3cnn(C)c3)nn2-c2ccccc2)c1` [Example 127, 1-(2-cyclobutyl-5-(methylthio)benzyl)-3-(1′,4-dimethyl-1-phenyl-1H,1H-[3,4′-bipyrazol]-5-yl)urea], for which the 50% inhibitory concentration (IC50) was 100 to 1000 nM.
To `CCSc1ccc(C2CCC2)c(CNC(=O)Nc2c(C)c(-c3cnn(C)c3)nn2-c2ccccc2)c1` [Example 128, 1-(2-cyclobutyl-5-(ethylthio)benzyl)-3-(1′,4-dimethyl-1-phenyl-1H,1′H-[3,4′-bipyrazol]-5-yl)urea] belongs 100 to 1000 nM.
To `COCc1cccc(C(Cc2ccccc2)NC(=O)Nc2c(C)c(-c3cnn(C)c3)nn2-c2ccccc2)c1` (stereo not drawn) [Example 129, 1-(1′,4-dimethyl-1-phenyl-1H,1′H-[3,4′-bipyrazol]-5-yl)-3-(1-(3-(methoxymethyl)phenyl)-2-phenylethyl)urea] belongs below 100 nM.
The figure for `COCc1ccc(OC(F)(F)F)c(CNC(=O)Nc2c(C)c(OC3CN4CCC3CC4)nn2-c2ccccc2)c1` (stereo not drawn) [Example 130, 1-(5-(methoxymethyl)-2-(trifluoromethoxy)benzyl)-3-(4-methyl-1-phenyl-3-(quinuclidin-3-yloxy)-1H-pyrazol-5-yl)urea] is below 100 nM.
With `COCc1ccc(OC(F)(F)F)c(CNC(=O)Nc2c(C)c(OC[C@@H]3CCC(=O)N3)nn2-c2ccccc2)c1` [Example 131, (S)-1-(5-(methoxymethyl)-2-(trifluoromethoxy)benzyl)-3-(4-methyl-3-((5-oxopyrrolidin-2-yl)methoxy)-1-phenyl-1H-pyrazol-5-yl)urea], the IC50 was below 100 nM.
The figure for `COCc1cccc(C(NC(=O)Nc2c(C)c(-c3cnn(C)c3)nn2-c2ccccc2)C(F)(F)F)c1` (stereo not drawn) [Example 132] is above 1000 nM.
